Patent publication US20230219965A1 (KSQ Therapeutics, Inc., priority 2020, published 2023)
Like-named read-outs stand apart in the source and are kept apart here.

What was measured:
USP1/UAF1 enzyme = USP1/UAF1 enzyme (Homo sapiens, UniProt O94782); assay: USP1/UAF1 deubiquitination assay (ubiquitin-rhodamine 110 substrate); assay type: biochemical; settings: read-out: USP1 IC50 (Ub-Rho)
In short: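 0.05 nM USP1/UAF1 was preincubated 10 min with compounds (dose response from 10 μM) in 50 mM Tris-HCl pH 7.8, 0.5 mM EDTA, 0.01% BSA, 1 mM DTT, 0.01% Tween-20. 150 nM ubiquitin-rhodamine 110 started the reaction, read kinetically 30 min at Ex480/Em540; IC50 by four-parameter fit versus no-enzyme and DMSO controls.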

[1] = tested on: Ub-PCNA levels in the nucleus of ES2 cells (USP1 activity); assay: ES2 Ub-PCNA immunofluorescence (IF) assay; assay type: cell-based; settings: Homo sapiens, ES-2; ES2 cells, 3 hours, Ub-PCNA immunofluorescence; read-out: USP1 IC50 (Ub-PCNA)
Method: USP1 is a deubiquitinating enzyme that removes ubiquitin from mono-ubiquitinated Proliferating Cell Nuclear Antigen (Ub-PCNA). The levels of Ub-PCNA in the nucleus of cells can be used to assess the activity of USP1. An immunofluorescence assay can be established to monitor Ub-PCNA levels in the ovarian cancer cell line, ES2.
An assay can be performed by first plating 5000 ES2 cells per well in black 96 well plates (Corning #3904) and then incubating overnight at 37° C. and 5% CO2. Compounds, resuspended in DMSO, can be added to the cells, to a final DMSO concentration of 0.3%. Plates can be incubated at 37° C. and 5% CO2 for 3 hours.
Cells can be then fixed and stained by first removing the media from each plate and fixing the cells with −20° C. methanol for 5 minutes at room temperature. Fixation plates can be washed with Tris buffered saline with tween (Boston Bioproducts #IBB-855) 5 times for 5 minutes each. Plates can be blocked for 1 hour with 50 μl of Odyssey blocking buffer (Licor #327-50000) at room temperature with rocking. Block can be removed from all wells and 50 μl of primary antibody was added to each well. Ub-PCNA ab (Cell Signaling Technology #13439) can be diluted at 1:400 in Odyssey blocking buffer. Plates can be sealed and incubated overnight at 4° C. Primary antibodies can be removed from the plates and plates can be washed with Tris buffered saline with tween 5 times for 5 minutes. Plates can be stained for 1 hour at room temperature with rocking with 50 μl of secondary antibodies diluted 1:10,000 in Odyssey blocking buffer at room temperature (anti-rabbit Alexa 488). Antibodies can be removed from the plates and plates can be washed with Tris buffered saline with tween 3 times for 5 minutes. Plates can be washed once with DAPI (Chemometec #910-3012) stain diluted 1:5000 (Stock solution of 500 μg/ml) in tris buffered saline with tween for 5 minutes. DAPI stain can be removed and plates can be washed one additional time for 5 minutes with tris buffered saline with tween. Wash can be removed from the plate and 100 μl tris buffered saline with tween can be added back to all wells, Plates can be sealed with Foil seals or black plate seals and plates can be stored at 4° C. until they can be imaged.
Imaging of the plates can be performed by first locating the nuclei using the DAPI stain. A mask can be created by drawing a circle slightly smaller than each nucleus. Ub-PCNA intensities can be measured for each individual nucleus counted. A histogram of all Ub-PCNA nuclear intensities measured in untreated wells can be generated and a 95% cutoff can be established. This 95% cutoff can be used to determine the number of Positive cells that have Ub-PCNA values higher than the 95% cutoff. The number of positive cells can be expressed as a percentage by dividing by the total number of cells in the well. This percent positive value can be used to graph all data and to determine AC50 values.
USP1 is a deubiquitinating enzyme that removes ubiquitin from mono-ubiquitinated
Proliferating Cell Nuclear Antigen (Ub-PCNA). The levels of Ub-PCNA in the nucleus of cells was used to assess the activity of USP1. An immunofluorescence assay was established to monitor Ub-PCNA levels in the ovarian cancer cell line, ES2.
This assay was performed by first plating 5000 ES2 cells per well in black 96 well plates (Corning #3904) and then incubated overnight at 37° C. and 5% CO2. Compounds, resuspended in DMSO, were added to the cells, to a final DMSO concentration of 0.3%. Plates were incubated at 37° C. and 5% CO2 for 3 hours.
Cells were then fixed and stained by first removing the media from each plate and fixing the cells with −20° C. methanol for 5 minutes at room temperature. Following fixation plates were washed with Tris buffered saline with tween (Boston Bioproducts ABB-855) 5 times for 5 minutes each. Plates were blocked for 1 hour with 50μ.1 of Odyssey blocking buffer (Licor #327-50000) at room temperature with rocking. […]

[2] = ADME solubility determination in PBS at pH 2.0 and pH 7.4; assay type: physicochemical; settings: phosphate buffered saline, 25 °C, thermodynamic from solid
In short: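 Dried 10 mM DMSO stock residues taken up in PBS pH 7.4 or pH 2.0, shaken 24 h at 25° C. After centrifugation, supernatant quantified by LC-MS/MS against a standard of known concentration, with a dilution factor applied.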

[3] = Liver microsomal metabolic stability, rat liver microsomes (RLM); settings: rat, liver microsomes, t1/2 (min) in RLM, 1 μM compound, 1 mg/mL microsomes, NADPH
[4] = Liver microsomal metabolic stability, human liver microsomes (HLM); settings: human, liver microsomes
[5] = pH 2, aqueous buffer, PBS pH 2.0, 25° C., read-out: Solubility at pH 2.0
[6] = pH 7.4, aqueous buffer, PBS pH 7.4, 25° C., read-out: Solubility at pH 7.4

USP1/UAF1 enzyme, sequence (O94782 whole entry): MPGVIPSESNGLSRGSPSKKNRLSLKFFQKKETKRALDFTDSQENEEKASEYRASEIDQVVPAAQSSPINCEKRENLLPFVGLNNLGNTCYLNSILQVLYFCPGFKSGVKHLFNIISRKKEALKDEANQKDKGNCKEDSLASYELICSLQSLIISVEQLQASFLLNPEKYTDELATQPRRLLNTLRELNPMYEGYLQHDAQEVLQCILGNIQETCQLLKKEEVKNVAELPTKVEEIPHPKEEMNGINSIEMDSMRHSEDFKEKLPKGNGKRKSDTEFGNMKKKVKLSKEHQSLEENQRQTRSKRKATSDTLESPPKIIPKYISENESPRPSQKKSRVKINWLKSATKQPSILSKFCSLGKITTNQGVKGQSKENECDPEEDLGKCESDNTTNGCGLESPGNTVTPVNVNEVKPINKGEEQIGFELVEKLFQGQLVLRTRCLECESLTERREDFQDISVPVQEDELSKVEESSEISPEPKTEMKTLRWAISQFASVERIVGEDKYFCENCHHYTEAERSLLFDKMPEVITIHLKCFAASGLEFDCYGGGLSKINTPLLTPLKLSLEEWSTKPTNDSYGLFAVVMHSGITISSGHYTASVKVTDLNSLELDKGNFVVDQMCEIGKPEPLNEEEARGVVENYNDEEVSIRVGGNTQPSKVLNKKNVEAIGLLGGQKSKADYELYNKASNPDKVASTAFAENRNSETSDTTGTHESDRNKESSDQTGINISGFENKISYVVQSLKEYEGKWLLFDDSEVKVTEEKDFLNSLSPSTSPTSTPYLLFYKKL
USP1/UAF1 enzyme, sequence (Q8TAF3 whole entry partner): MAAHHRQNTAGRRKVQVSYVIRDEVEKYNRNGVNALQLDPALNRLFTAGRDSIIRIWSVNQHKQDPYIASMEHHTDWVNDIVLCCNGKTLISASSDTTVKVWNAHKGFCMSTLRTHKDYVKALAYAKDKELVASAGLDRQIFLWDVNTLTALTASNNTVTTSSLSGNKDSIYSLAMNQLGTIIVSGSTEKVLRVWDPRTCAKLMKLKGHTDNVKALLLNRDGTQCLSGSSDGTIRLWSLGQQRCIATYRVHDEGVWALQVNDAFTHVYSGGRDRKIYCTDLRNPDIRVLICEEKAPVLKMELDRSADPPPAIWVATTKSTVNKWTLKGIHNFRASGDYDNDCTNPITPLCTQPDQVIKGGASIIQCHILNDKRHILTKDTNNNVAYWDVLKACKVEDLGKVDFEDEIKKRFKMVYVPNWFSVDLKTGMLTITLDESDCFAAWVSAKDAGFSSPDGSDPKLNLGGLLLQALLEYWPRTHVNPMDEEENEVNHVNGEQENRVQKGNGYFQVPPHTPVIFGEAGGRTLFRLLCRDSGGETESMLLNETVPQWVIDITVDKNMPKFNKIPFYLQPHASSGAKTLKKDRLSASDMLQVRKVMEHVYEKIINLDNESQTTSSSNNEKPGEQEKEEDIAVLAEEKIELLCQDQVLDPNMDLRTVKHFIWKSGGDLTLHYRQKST

| Structure (SMILES) | IC50 (USP1/UAF1 enzyme) [nM] | IC50 [1] [nM] | solubility at 24 h [2, 5] [µM] | solubility at 24 h [2, 6] [µM] | half-life at 1 μM [3] [min] | half-life at 1 μM [4] [min] |
| --- | --- | --- | --- | --- | --- | --- |
| CCn1cc(C(F)(F)F)nc1-c1ccc(N[C@H]2CCCn3nc(-c4c(Cl)cnn4C(C)C)cc32)cc1 (single isomer, unassigned) [Example 239] | < 100 | < 100 | < 10 | < 10 | > 25 | > 25 |
| CCn1cc(C(F)(F)F)nc1-c1ccc(N[C@H]2CCCn3nc(-c4c(OC)ncnc4C4CC4)cc32)cc1 (single isomer, unassigned) [Example 242] | < 100 | 100 to 500 | < 10 | < 10 | > 25 | > 25 |
| CCn1cc(C(F)(F)F)nc1-c1ccc(O[C@H]2CCCn3nc(-c4c(OC)ncnc4C4CC4)cc32)cc1F (single isomer, unassigned) [Example 263] | < 100 | < 100 | < 10 | < 10 | > 25 | > 25 |
| CCn1cc(C(F)(F)F)nc1-c1ccc(O[C@@H]2CCCn3nc(-c4c(OC)ncnc4C4CC4)cc32)cc1F (single isomer, unassigned) [Example 264] | < 100 | 100 to 500 | ≥ 10 | < 10 | > 25 | > 25 |
| CCn1cc(C(F)(F)F)nc1-c1ccc([C@H](C)n2c(=O)ccn3nc(-c4c(OC)ncnc4C4CC4)cc23)cc1F (single isomer, unassigned) [Example 334] | < 100 | 100 to 500 | < 10 | < 10 | > 25 | > 25 |
| CCn1cc(C(F)(F)F)nc1-c1ccc(CN2C(=O)[C@H](C)Cn3nc(-c4c(OC)ncnc4C4CC4)nc32)cc1F (single isomer, unassigned) [Example 348] | < 100 | < 100 | ≥ 10 | ≥ 10 | > 25 | > 25 |
| CCn1cc(C(F)(F)F)nc1-c1ccc(CN2C(=O)[C@@H](C)Cn3nc(-c4c(OC)ncnc4C4CC4)nc32)cc1F (single isomer, unassigned) [Example 349] | < 100 | < 100 | ≥ 10 | < 10 | > 25 | > 25 |
| COc1ncnc(C2CC2)c1-c1cc2n(n1)CCC(=O)N2Cc1ccc(-c2nc(C(F)(F)F)cn2C)cc1 [Example 1, 2-(4-cyclopropyl-6-methoxypyrimidin-5-yl)-4-(4-(1-methyl-4-(trifluoromethyl)-1H-imidazol-2-yl)benzyl)-6,7-dihydropyrazolo[1,5-α]pyrimidin-5(4H)-one] | < 100 | 100 to 500 | ≥ 10 | < 10 | > 25 | > 25 |
| Cc1cnn(C(C)C)c1-c1cc2n(n1)CCC(=O)N2Cc1ccc(-c2nc(C(F)(F)F)cn2C)cc1 [Example 6, 2-(1-isopropyl-4-methyl-1H-pyrazol-5-yl)-4-(4-(1-methyl-4-(trifluoromethyl)-1H-imidazol-2-yl)benzyl)-6,7-dihydropyrazolo[1,5-a]pyrimidin-5(4H)-one] | < 100 | > 500 | ≥ 10 | ≥ 10 | < 25 | < 25 |
| COc1ncnc(C2CC2)c1-c1cc2n(n1)CCC(=O)N2Cc1ccc(-n2nc(C(F)(F)F)cc2OC)c(F)c1 [Example 7, 2-(4-cyclopropyl-6-methoxypyrimidin-5-yl)-4-(3-fluoro-4-(5-methoxy-3-(trifluoromethyl)-1H-pyrazol-1-yl)benzyl)-6,7-dihydropyrazolo[1,5-a]pyrimidin-5(4H)-one] | < 100 | 100 to 500 | < 10 | < 10 | > 25 | > 25 |

Next, values leading:

| IC50 (USP1/UAF1 enzyme) [nM] | IC50 [1] [nM] | solubility at 24 h [2, 5] [µM] | solubility at 24 h [2, 6] [µM] | half-life at 1 μM [3] [min] | half-life at 1 μM [4] [min] | Structure (SMILES) |
| --- | --- | --- | --- | --- | --- | --- |
| < 100 | < 100 | ≥ 10 | < 10 | < 25 | < 25 | CCn1cc(C(F)(F)F)nc1-c1ccc([C@H](C)N2CCCn3nc(-c4c(Cl)cnn4C(C)C)cc32)cc1 (single isomer, unassigned) [Example 67] |
| < 100 | < 100 | < 10 | < 10 | < 25 | < 25 | CCn1cc(C(F)(F)F)nc1-c1ccc([C@@H](C)N2CCCn3nc(-c4c(Cl)cnn4C(C)C)cc32)cc1 (single isomer, unassigned) [Example 68] |
| < 100 | < 100 | < 10 | < 10 | > 25 | > 25 | CCn1cc(C(F)(F)F)nc1-c1ccc(N[C@@H]2CCCn3nc(-c4c(Cl)cnn4C(C)C)cc32)cc1 (single isomer, unassigned) [Example 238] |
| < 100 | 100 to 500 | ≥ 10 | < 10 | > 25 | > 25 | CCn1cc(C(F)(F)F)nc1-c1ccc(N[C@@H]2CCCn3nc(-c4c(OC)ncnc4C4CC4)cc32)cc1 (single isomer, unassigned) [Example 243] |
| 100 to 500 | 100 to 500 | < 10 | < 10 | > 25 | > 25 | CCn1cc(C(F)(F)F)nc1-c1ccc([C@H](C)N2C(=O)CCn3nc(-c4c(C#N)cnn4C(C)C)cc32)cc1F (single isomer, unassigned) [Example 325] |
| < 100 | 100 to 500 | < 10 | < 10 | > 25 | > 25 | COc1ncnc(C2CC2)c1-c1cc2n(n1)CCC(=O)N2Cc1ccc(-c2nc(C(F)(F)F)cn2C)c(F)c1 [Example 2, 2-(4-cyclopropyl-6-methoxypyrimidin-5-yl)-4-(3-fluoro-4-(1-methyl-4-(trifluoromethyl)-1H-imidazol-2-yl)benzyl)-6,7-dihydropyrazolo[1,5-a]pyrimidin-5(4H)-one] |
